The values that follow come from article PMC10087438 (The Febs Journal, 2022).

Data set [1] has as its target T1, PaNADK (NAD kinase from Pseudomonas aeruginosa) (Pseudomonas aeruginosa, UniProt Q9HZC0).
T1 sequence (Q9HZC0 1-295): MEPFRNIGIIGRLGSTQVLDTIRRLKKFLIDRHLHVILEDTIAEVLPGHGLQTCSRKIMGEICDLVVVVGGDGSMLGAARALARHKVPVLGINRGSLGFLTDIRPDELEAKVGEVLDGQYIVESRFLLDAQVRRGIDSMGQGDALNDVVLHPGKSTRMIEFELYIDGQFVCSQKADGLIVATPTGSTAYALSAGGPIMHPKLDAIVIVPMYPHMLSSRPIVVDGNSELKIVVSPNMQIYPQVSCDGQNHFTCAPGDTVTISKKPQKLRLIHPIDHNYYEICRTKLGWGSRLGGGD
Description: G6PDH-coupled enzyme assay, global competitive inhibition fit. The data set is classed as biochemical.

Data set [2] addresses T2, LmNADK (NADK 1 from Listeria monocytogenes) (Listeria monocytogenes, UniProt Q8Y8D7).
T2 sequence (Q8Y8D7 1-264): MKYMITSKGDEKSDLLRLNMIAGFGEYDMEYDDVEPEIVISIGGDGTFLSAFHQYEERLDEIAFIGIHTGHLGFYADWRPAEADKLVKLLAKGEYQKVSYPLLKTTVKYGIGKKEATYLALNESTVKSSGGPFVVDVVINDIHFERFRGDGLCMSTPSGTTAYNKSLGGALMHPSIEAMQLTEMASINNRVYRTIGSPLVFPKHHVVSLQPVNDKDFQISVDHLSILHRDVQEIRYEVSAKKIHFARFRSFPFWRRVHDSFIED
Put plainly: enzyme inhibition. The class given is biochemical.

The target in data set [3] is T1, PaNADK (NAD kinase from Pseudomonas aeruginosa). Description: X-ray crystal structure, […] Å. The data set is classed as binding.
Substrate in data set [4]: NC(=O)c1ccc[n+]([C@@H]2O[C@H](COP(=O)([O-])OP(=O)(O)OC[C@H]3O[C@@H](n4cnc5c(N)ncnc54)[C@H](O)[C@@H]3O)[C@@H](O)[C@H]2O)c1
Put plainly: purified protein. To be noted: MgATP.

Substrate in data set [5]: Nc1ncnc2c1ncn2[C@@H]1O[C@H](COP(=O)(O)OP(=O)(O)OP(=O)(O)O)[C@@H](O)[C@H]1O
Put plainly: purified protein. Conditions: Mg2+.

In general, Ki refers to the equilibrium dissociation constant of an inhibitor or competing ligand from its target. Higher therefore signals a looser hold on the target. `NC(=O)c1cccc([C@@H]2O[C@H](COCC#Cc3nc4c(N)ncnc4n3[C@@H]3O[C@H](CO)[C@@H](O)[C@H]3O)[C@@H](O)[C@H]2O)c1` [compound 1, 5‐O ‐[3‐(adenosin‐8‐yl)prop‐2‐yn‐1‐yl]‐1‐deoxy‐1‐(3‐carbamoylphenyl)‐β‐D‐ribofuranose]: the figures for the inhibition constant Ki in data set [1] and in data set [2] were 4.6 ± 0.3 µM and 3.2 ± 0.4 µM, respectively.

Consider `NC(=O)c1ccc[n+]([C@@H]2O[C@H](COP(=O)([O-])OP(=O)(O)OC[C@H]3O[C@@H](n4cnc5c(N)ncnc54)[C@H](OP(=O)(O)O)[C@@H]3O)[C@@H](O)[C@H]2O)c1` [NADP^+], for which the “X-ray crystal structure, 2.3 Å” value in data set [3] is on record as “we determined the atomic structure of the protein bound to NADP^+ by X‐ray crystallography”.

B1: PaNADK (NAD kinase from Pseudomonas aeruginosa) (Pseudomonas aeruginosa PAO1) (protein)
chain: MEPFRNIGIIGRLGSTQVLDTIRRLKKFLIDRHLHVILEDTIAEVLPGHGLQTCSRKIMGEICDLVVVVGGDGSMLGAARALARHKVPVLGINRGSLGFLTDIRPDELEAKVGEVLDGQYIVESRFLLDAQVRRGIDSMGQGDALNDVVLHPGKSTRMIEFELYIDGQFVCSQKADGLIVATPTGSTAYALSAGGPIMHPKLDAIVIVPMYPHMLSSRPIVVDGNSELKIVVSPNMQIYPQVSCDGQNHFTCAPGDTVTISKKPQKLRLIHPIDHNYYEICRTKLGWGSRLGGGD
For orientation: Km means the concentration of substrate that gives half-maximal velocity. On to B1, for which the figures for the Km in data set [4] and in data set [5] were 150 µM and 2000 µM, respectively.
